PubChem BioAssay AID1259407 (Chemical Carcinogenesis Research Information System (CCRIS), 2018)
The source made the active and inactive calls. How the calls were made is not given here.

Tested on: CCRIS mutagenicity, Ames/micronucleus/aberration tests
Experiment: CCRIS mutagenicity studies
[1] = Test System: AMES SALMONELLA TYPHIMURIUM, Strain/Indicator: TA98, Metabolic Activation: NONE, Method: PREINCUBATION
[2] = Test System: AMES SALMONELLA TYPHIMURIUM, Strain/Indicator: TA100, Metabolic Activation: NONE, Method: PREINCUBATION
[3] = Test System: AMES SALMONELLA TYPHIMURIUM, Strain/Indicator: TA1535, Metabolic Activation: NONE, Method: PREINCUBATION
[4] = Test System: AMES SALMONELLA TYPHIMURIUM, Strain/Indicator: TA1537, Metabolic Activation: NONE, Method: PREINCUBATION
[5] = Test System: AMES SALMONELLA TYPHIMURIUM, Strain/Indicator: TA100, Metabolic Activation: NONE, Method: STANDARD PLATE

In the case of `CC(C)O`, the mutagenic call (Test System: AMES SALMONELLA TYPHIMURIUM, Strain/Indicator: TA97, Metabolic Activation: HAMSTER, LIVER, S-9, AROCLOR 1254 (10 OR 30%), Method: PREINCUBATION) is reported as “inactive; negative”, the mutagenic call (Test System: AMES SALMONELLA TYPHIMURIUM, Strain/Indicator: TA97, Metabolic Activation: NONE, Method: PREINCUBATION) is reported as “inactive; negative” and the mutagenic call (Test System: AMES SALMONELLA TYPHIMURIUM, Strain/Indicator: TA97, Metabolic Activation: RAT, LIVER, S-9, AROCLOR 1254 (10 OR 30%), Method: PREINCUBATION) is reported as “inactive; negative”. The mutagenic call (Test System: AMES SALMONELLA TYPHIMURIUM, Strain/Indicator: TA98, Metabolic Activation: HAMSTER, LIVER, S-9, AROCLOR 1254 (10 OR 30%), Method: PREINCUBATION) was “inactive; negative”, the mutagenic call [1] was “inactive; negative” and the mutagenic call (Test System: AMES SALMONELLA TYPHIMURIUM, Strain/Indicator: TA98, Metabolic Activation: RAT, LIVER, S-9, AROCLOR 1254 (10 OR 30%), Method: PREINCUBATION) was “inactive; negative”. For the same compound, the mutagenic call (Test System: AMES SALMONELLA TYPHIMURIUM, Strain/Indicator: TA98, Metabolic Activation: RAT, LIVER, S-9, KC 500, Method: PREINCUBATION) was “inactive; negative”, the mutagenic call (Test System: AMES SALMONELLA TYPHIMURIUM, Strain/Indicator: TA98, Metabolic Activation: RAT, LIVER, S-9, PHENOBARBITAL AND BETA-NAPHTHOFLAVONE, Method: PREINCUBATION) was “inactive; negative” and the mutagenic call (Test System: AMES SALMONELLA TYPHIMURIUM, Strain/Indicator: TA100, Metabolic Activation: HAMSTER, LIVER, S-9, AROCLOR 1254 (10 OR 30%), Method: PREINCUBATION) was “inactive; negative”. The mutagenic call [2] was “inactive; negative”, the mutagenic call (Test System: AMES SALMONELLA TYPHIMURIUM, Strain/Indicator: TA100, Metabolic Activation: RAT, LIVER, S-9, AROCLOR 1254 (10 OR 30%), Method: PREINCUBATION) was “inactive; negative” and the mutagenic call (Test System: AMES SALMONELLA TYPHIMURIUM, Strain/Indicator: TA100, Metabolic Activation: RAT, LIVER, S-9, KC 500, Method: PREINCUBATION) was “inactive; negative”. For the same compound, the mutagenic call (Test System: AMES SALMONELLA TYPHIMURIUM, Strain/Indicator: TA100, Metabolic Activation: RAT, LIVER, S-9, PHENOBARBITAL AND BETA-NAPHTHOFLAVONE, Method: PREINCUBATION) was “inactive; negative”, the mutagenic call (Test System: AMES SALMONELLA TYPHIMURIUM, Strain/Indicator: TA102, Metabolic Activation: NONE, Method: PREINCUBATION) was “inactive; negative” and the mutagenic call (Test System: AMES SALMONELLA TYPHIMURIUM, Strain/Indicator: TA102, Metabolic Activation: RAT, LIVER, S-9, PHENOBARBITAL AND BETA-NAPHTHOFLAVONE, Method: PREINCUBATION) was “inactive; negative”. The mutagenic call (Test System: AMES SALMONELLA TYPHIMURIUM, Strain/Indicator: TA104, Metabolic Activation: NONE, Method: PREINCUBATION) was “inactive; negative”, the mutagenic call (Test System: AMES SALMONELLA TYPHIMURIUM, Strain/Indicator: TA104, Metabolic Activation: RAT, LIVER, S-9, PHENOBARBITAL AND BETA-NAPHTHOFLAVONE, Method: PREINCUBATION) was “inactive; negative” and the mutagenic call (Test System: AMES SALMONELLA TYPHIMURIUM, Strain/Indicator: TA1535, Metabolic Activation: HAMSTER, LIVER, S-9, AROCLOR 1254 (10 OR 30%), Method: PREINCUBATION) was “inactive; negative”. For the same compound, the mutagenic call [3] was “inactive; negative”, the mutagenic call (Test System: AMES SALMONELLA TYPHIMURIUM, Strain/Indicator: TA1535, Metabolic Activation: RAT, LIVER, S-9, AROCLOR 1254 (10 OR 30%), Method: PREINCUBATION) was “inactive; negative” and the mutagenic call (Test System: AMES SALMONELLA TYPHIMURIUM, Strain/Indicator: TA1535, Metabolic Activation: RAT, LIVER, S-9, KC 500, Method: PREINCUBATION) was “inactive; negative”. The mutagenic call (Test System: AMES SALMONELLA TYPHIMURIUM, Strain/Indicator: TA1535, Metabolic Activation: RAT, LIVER, S-9, PHENOBARBITAL AND BETA-NAPHTHOFLAVONE, Method: PREINCUBATION) was “inactive; negative”, the mutagenic call (Test System: AMES SALMONELLA TYPHIMURIUM, Strain/Indicator: TA1537, Metabolic Activation: HAMSTER, LIVER, S-9, AROCLOR 1254 (30%), Method: PREINCUBATION) was “inactive; negative” and the mutagenic call [4] was “inactive; negative”. For the same compound, the mutagenic call (Test System: AMES SALMONELLA TYPHIMURIUM, Strain/Indicator: TA1537, Metabolic Activation: RAT, LIVER, S-9, AROCLOR 1254 (30%), Method: PREINCUBATION) was “inactive; negative”, the mutagenic call (Test System: AMES SALMONELLA TYPHIMURIUM, Strain/Indicator: TA1537, Metabolic Activation: RAT, LIVER, S-9, KC 500, Method: PREINCUBATION) was “inactive; negative” and the mutagenic call (Test System: AMES SALMONELLA TYPHIMURIUM, Strain/Indicator: TA1537, Metabolic Activation: RAT, LIVER, S-9, PHENOBARBITAL AND BETA-NAPHTHOFLAVONE, Method: PREINCUBATION) was “inactive; negative”. The mutagenic call (Test System: AMES SALMONELLA TYPHIMURIUM, Strain/Indicator: TA1538, Metabolic Activation: NONE, Method: PREINCUBATION) was “inactive; negative”, the mutagenic call (Test System: AMES SALMONELLA TYPHIMURIUM, Strain/Indicator: TA1538, Metabolic Activation: RAT, LIVER, S-9, KC 500, Method: PREINCUBATION) was “inactive; negative” and the mutagenic call (Test System: CHINESE HAMSTER OVARY, Strain/Indicator: CHO-K1-BH4 (HGPRT), Metabolic Activation: NONE) was “inactive; negative”. For the same compound, the mutagenic call (Test System: CHINESE HAMSTER OVARY, Strain/Indicator: CHO-K1-BH4 (HGPRT), Metabolic Activation: RAT, LIVER, S-9, AROCLOR 1254) was “inactive; negative”, the mutagenic call (Test System: E. COLI, Strain/Indicator: WP2UVRA/PKM101, Metabolic Activation: NONE, Method: PREINCUBATION) was “inactive; negative” and the mutagenic call (Test System: E. COLI, Strain/Indicator: WP2UVRA/PKM101, Metabolic Activation: RAT, LIVER, S-9, PHENOBARBITAL AND BETA-NAPHTHOFLAVONE, Method: PREINCUBATION) was “inactive; negative”. The mutagenic call (Test System: E. COLI, Strain/Indicator: WP2 UVRA, Metabolic Activation: NONE, Method: PREINCUBATION) was “inactive; negative”, the mutagenic call (Test System: E. COLI, Strain/Indicator: WP2UVRA, Metabolic Activation: NONE, Method: PREINCUBATION) was “inactive; negative” and the mutagenic call (Test System: E. COLI, Strain/Indicator: WP2 UVRA, Metabolic Activation: RAT, LIVER, S-9, KC 500, Method: PREINCUBATION) was “inactive; negative”. The mutagenic call (Test System: E. COLI, Strain/Indicator: WP2UVRA, Metabolic Activation: RAT, LIVER, S-9, PHENOBARBITAL AND BETA-NAPHTHOFLAVONE, Method: PREINCUBATION) was “inactive; negative”.

`c1ccc2c3c4c(cc5ccccc5c4cc2c1)C1=C3CCCC1` was tested, and the mutagenic call (Test System: AMES SALMONELLA TYPHIMURIUM, Strain/Indicator: TA100, Metabolic Activation: RAT, LIVER, S-9, 3-METHYLCHOLANTHRENE, Method: STANDARD PLATE) was “active; positive”.

In the case of `CCCCN(C)N=O`, the mutagenic call (Test System: AMES SALMONELLA TYPHIMURIUM, Strain/Indicator: TA100, Metabolic Activation: RAT, LIVER, S-9, KC500 OR PHENOBARBITAL, Method: LIQUID SUSPENSION) is reported as “active; positive”.

In the case of `CCN[C@@H](C)C[C@H](C)NCC.[Cl-].[Cl-].[Pt+2]`, the mutagenic call (Test System: AMES SALMONELLA TYPHIMURIUM, Strain/Indicator: TA97A, Metabolic Activation: NONE, Method: STANDARD PLATE) is reported as “active; positive” and the mutagenic call [5] is reported as “active; positive”.

`CC(C)=CCC/C(C)=C/C=C/C(C)=C/C=C/C(C)=C/C=C/C=C(C)/C=C/C=C(C)/C=C/C=C(\C)CCC=C(C)C` was tested, and the mutagenic call [1] was “inactive; negative”, the mutagenic call (Test System: AMES SALMONELLA TYPHIMURIUM, Strain/Indicator: TA98, Metabolic Activation: RAT LIVER S-9, Method: PREINCUBATION) was “inactive; negative” and the mutagenic call [2] was “inactive; negative”. The mutagenic call (Test System: AMES SALMONELLA TYPHIMURIUM, Strain/Indicator: TA100, Metabolic Activation: RAT LIVER S-9, Method: PREINCUBATION) was “inactive; negative”, the mutagenic call [3] was “inactive; negative” and the mutagenic call (Test System: AMES SALMONELLA TYPHIMURIUM, Strain/Indicator: TA1535, Metabolic Activation: RAT LIVER S-9, Method: PREINCUBATION) was “inactive; negative”. For the same compound, the mutagenic call [4] was “inactive; negative”, the mutagenic call (Test System: AMES SALMONELLA TYPHIMURIUM, Strain/Indicator: TA1537, Metabolic Activation: RAT LIVER S-9, Method: PREINCUBATION) was “inactive; negative” and the mutagenic call (Test System: ESCHERICHIA COLI, Strain/Indicator: WP2 UVR A, Metabolic Activation: NONE, Method: PREINCUBATION) was “inactive; negative”. The mutagenic call (Test System: ESCHERICHIA COLI, Strain/Indicator: WP2 UVR A, Metabolic Activation: RAT LIVER S-9, Method: PREINCUBATION) was “inactive; negative”.

`C1CC2OC2CCC2OC12` (stereo unspecified) was tested, and the mutagenic call [5] was “inactive; negative” and the mutagenic call (Test System: AMES SALMONELLA TYPHIMURIUM, Strain/Indicator: TA1535, Metabolic Activation: NONE, Method: STANDARD PLATE) was “inactive; negative”.

`O[C@@H]1[C@H]2O[C@H]2c2c(ccc3cc4ccc5ccccc5c4nc23)[C@H]1O` was tested, and the mutagenic call [1] was “active; positive”, the mutagenic call [2] was “active; positive” and the mutagenic call (Test System: CHINESE HAMSTER V-79, Strain/Indicator: V-79/8-AZAGUANINE, Metabolic Activation: NONE, Method: STANDARD PLATE) was “active; positive”.
